The source of these data is patent US20060173041A1, “Sulphonylpiperidine derivatives containing an aryl or heteroaryl group for use as matrix metalloproteinase inhibitors” (priority 2002, published 2006).

The assay concerns the target T1, proTNFα convertase enzyme (TACE) (Homo sapiens, UniProt P78536).
T1 construct: partially purified, isolated enzyme assay, the enzyme being obtained from the membranes of THP-1; endogenous in cells; host or cells: THP-1 cell membranes, partially purified as in Mohler et al. (1994) Nature 370:218-220
Description: partially purified isolated enzyme assay for proTNFα convertase (TACE). The settings on record: 10 μM of compound; enzyme from membranes of THP-1; 26° C. for 4 hours. It counts as biochemical. The method, then: Recombinant human proMMP13 may be expressed and purified as described by Knauper et al. [V. Knauper et al., (1996) The Biochemical Journal 271:1544-1550 (1996)]. […] Activity is determined by measuring the fluorescence at λex 328 nm and λem 393 nm. Percent inhibition may be calculated as follows: % Inhibition is equal to the [Fluorescenceplus inhibitor−Fluorescencebackground] divided by the [Fluorescenceminus inhibitor−Fluorescencebackground].
The ability of the compounds to inhibit proTNFα convertase enzyme (TACE) has been assessed using a partially purified, isolated enzyme assay, the enzyme being obtained from the membranes of THP-1 as described by K. M. Mohler et al., (1994) Nature 370:218-220. The purified enzyme activity and inhibition thereof was determined by incubating the partially purified enzyme in the presence or absence of test compounds using the substrate 4′,5′-Dimethoxy-fluoresceinyl Ser.Pro.Leu.Ala.Gln.Ala.Val.Arg.Ser.Ser.Ser.Arg.Cys(4-(3-succinimid-1-yl)fluorescein)-NH2 in assay buffer (50 mM Tris HCl, pH 7.4 containing 0.1% (w/v) Triton X-100 and 2 mM CaCl2), at 26° C. for 4 hours. The amount of inhibition was determined as for MMP13 except λex 485 nm and λem 538 nm were used. […]

What is called inhibition is the change of the read-out against control, counted positive when it falls. A high value points to a response far below the control.

T1 sequence (P78536 215-824): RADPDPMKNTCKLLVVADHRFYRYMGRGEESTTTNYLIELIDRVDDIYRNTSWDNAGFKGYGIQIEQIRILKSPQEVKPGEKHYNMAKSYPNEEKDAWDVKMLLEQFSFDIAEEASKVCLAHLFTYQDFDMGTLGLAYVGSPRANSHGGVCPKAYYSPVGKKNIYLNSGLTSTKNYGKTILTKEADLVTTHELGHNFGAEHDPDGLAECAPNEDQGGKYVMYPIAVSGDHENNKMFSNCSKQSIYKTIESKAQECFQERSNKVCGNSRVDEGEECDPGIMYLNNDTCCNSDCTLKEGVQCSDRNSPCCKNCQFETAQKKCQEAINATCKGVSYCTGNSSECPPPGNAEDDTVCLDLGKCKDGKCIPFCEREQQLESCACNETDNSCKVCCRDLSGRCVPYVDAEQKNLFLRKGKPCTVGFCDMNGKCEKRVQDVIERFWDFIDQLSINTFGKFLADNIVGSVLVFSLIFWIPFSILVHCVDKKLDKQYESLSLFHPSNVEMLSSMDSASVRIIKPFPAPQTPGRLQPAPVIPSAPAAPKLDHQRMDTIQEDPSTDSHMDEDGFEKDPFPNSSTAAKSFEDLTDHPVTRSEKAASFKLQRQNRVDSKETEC

For the compound `CC(C)Oc1ccccc1OC1CCN(S(=O)(=O)CC(c2ccccc2)N(O)C=O)CC1` (racemic) [Example 8, (R/S)-hydroxy(2-{[4-(2-isopropoxyphenoxy)piperidin-1-yl]sulphonyl}-1-phenylethyl)formamide], the inhibition at 10 µM stood at 81%.
`CC(C)NC(=O)c1ccccc1OC1CCN(S(=O)(=O)CC(c2ccccc2)N(O)C=O)CC1` (racemic) [Example 14] gave an inhibition at 10 µM of 76%.
